System: 293T-HRE-GFP-luc cells
Test: Cell-based reporter assay for IC50 determinations (HRE-luciferase, hypoxia)
Details: 6 h, 6 hrs hypoxia (1% O2), luminescence
In short: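 293T-HRE-GFP-luc cells were pre-incubated with serially diluted compounds for 30 min under normoxia, then held 6 hrs in hypoxia (1% O2, 37° C). HRE-driven luciferase read by Steadylite Plus luminescence; IC50 from four-parameter logistic fit.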

Structure (SMILES)	IC50
COc1cccc(Cn2cc(-c3nc(-c4ccc(OC(F)(F)F)cc4)no3)ccc2=O)c1 [Example 121, 1-(3-methoxybenzyl)-5-(3-(4-(trifluoromethoxy)phenyl)-1,2,4-oxadiazol-5-yl)pyridin-2(1H)-one]	< 100 nM
N#Cc1cccc(Cn2cc(-c3nc(-c4ccc(OC(F)(F)F)cc4)no3)ccc2=O)c1 [Example 122, 3-((2-oxo-5-(3-(4-(trifluoromethoxy)phenyl)-1,2,4-oxadiazol-5-yl)pyridin-1(2H)-yl)methyl)benzonitrile]	< 100 nM
CS(=O)(=O)c1cccc(Cn2cc(-c3nc(-c4ccc(OC(F)(F)F)cc4)no3)ccc2=O)c1 [Example 123, 1-(3-(methylsulfonyl)benzyl)-5-(3-(4-(trifluoromethoxy)phenyl)-1,2,4-oxadiazol-5-yl)pyridin-2(1H)-one]	< 100 nM
NS(=O)(=O)c1cccc(Cn2cc(-c3nc(-c4ccc(OC(F)(F)F)cc4)no3)ccc2=O)c1 [Example 124, 3-((2-oxo-5-(3-(4-(trifluoromethoxy)phenyl)-1,2,4-oxadiazol-5-yl)pyridin-1(2H)-yl)methyl)benzenesulfonamide]	< 100 nM
CN1CCN(C(=O)c2cc(Cn3nc(-c4nc(-c5ccc(OC(F)(F)F)cc5)no4)ccc3=O)ccn2)CC1 [Example 125, 2-((2-(4-methylpiperazine-1-carbonyl)pyridin-4-yl)methyl)-6-(3-(4-(trifluoromethoxy)phenyl)-1,2,4-oxadiazol-5-yl)pyridazin-3(2H)-one]	1000 to 10000 nM
COC(=O)c1cc(Cn2nc(-c3nc(-c4ccc(OC(F)(F)F)cc4)no3)ccc2=O)ccc1F [Example 126, methyl 2-fluoro-5-((6-oxo-3-(3-(4-(trifluoromethoxy)phenyl)-1,2,4-oxadiazol-5-yl)pyridazin-1(6H)-yl)methyl)benzoate]	< 100 nM
O=c1c(-c2nc(-c3ccc(OC(F)(F)F)cc3)no2)cccn1Cc1ccnc(N2CCOCC2)c1 [Example 127, 1-((2-morpholinopyridin-4-yl)methyl)-3-(3-(4-(trifluoromethoxy)phenyl)-1,2,4-oxadiazol-5-yl)pyridin-2(1H)-one]	100 to 1000 nM
Cc1ccc(-c2nc(-c3ccc(OC(F)(F)F)cc3)no2)c(=O)n1Cc1cccc(C(=O)N(C)C)c1 [Example 128, N,N-dimethyl-3-((6-methyl-2-oxo-3-(3-(4-(trifluoromethoxy)phenyl)-1,2,4-oxadiazol-5-yl)pyridin-1(2H)-yl)methyl)benzamide]	100 to 1000 nM
O=C(c1cc(Cn2nc(-c3nc(-c4ccc(OC(F)(F)F)cc4)no3)ccc2=O)ccc1F)N1CCOCC1 [Example 129, 2-{[4-fluoro-3-(morpholine-4-carbonyl)phenyl]methyl}-6-{3-[4-(trifluoromethoxy)phenyl]-1,2,4-oxadiazol-5-yl}-2,3-dihydropyridazin-3-one]	100 to 1000 nM
CN1CCN(C(=O)c2cc(Cn3nc(-c4nc(-c5ccc(OC(F)(F)F)cc5)no4)ccc3=O)ccc2F)CC1 [Example 130, 2-{[4-fluoro-3-(4-methylpiperazine-1-carbonyl)phenyl]methyl}-6-{3-[4-(trifluoromethoxy)phenyl]-1,2,4-oxadiazol-5-yl}-2,3-dihydropyridazin-3-one]	100 to 1000 nM
CNC(=O)c1cccc(Cn2nc(-c3nc(-c4ccc(OC(F)(F)F)cc4)no3)ccc2=O)c1 [Example 131, N-methyl-3-[(6-oxo-3-{3-[4-(trifluoromethoxy)phenyl]-1 2 4-oxadiazol-5-yl}-1 6-dihydropyridazin-1-yl)methyl]benzamide]	< 100 nM
NC(=O)c1cccc(Cn2nc(-c3nc(-c4ccc(OC(F)(F)F)cc4)no3)ccc2=O)c1 [Example 132, 3-[(6-oxo-3-{3-[4-(trifluoromethoxy)phenyl]-1,2,4-oxadiazol-5-yl}-1,6-dihydropyridazin-1-yl)methyl]benzamide]	< 100 nM
CNC(=O)c1cccc(Cn2cc(-c3nc(-c4ccc(OC(F)(F)F)cc4)no3)ccc2=O)c1 [Example 133, N-methyl-3-[(2-oxo-5-{3-[4-(trifluoromethoxy)phenyl]-1,2,4-oxadiazol-5-yl}-1,2-dihydropyridin-1-yl)methyl]benzamide]	< 100 nM
CN(C)C(=O)c1cccc(Cn2cc(-c3nc(-c4ccc(OC(F)(F)F)cc4)no3)ccc2=O)c1 [Example 134, N,N-dimethyl-3-[(2-oxo-5-{3-[4-(trifluoromethoxy)phenyl]-1,2,4-oxadiazol-5-yl}-1,2-dihydropyridin-1-yl)methyl]benzamide]	< 100 nM
O=c1ccc(-c2nc(-c3ccc(OC(F)(F)F)cc3)no2)cn1Cc1ccc(F)c(Br)c1 [Example 135, 1-[(3-bromo-4-fluorophenyl)methyl]-5-{3-[4-(trifluoromethoxy)phenyl]-1,2,4-oxadiazol-5-yl}-1,2-dihydropyridin-2-one]	100 to 1000 nM
COc1ccc(Cn2cc(-c3nc(-c4ccc(OC(F)(F)F)cc4)no3)ccc2=O)cc1 [Example 136, 1-[(4-methoxyphenyl)methyl]-5-{3-[4-(trifluoromethoxy)phenyl]-1,2,4-oxadiazol-5-yl}-1,2-dihydropyridin-2-one]	< 100 nM

Structure (SMILES)	IC50
CN1CCN(c2cc(Cn3cc(-c4nc(-c5ccc(OC(F)(F)F)cc5)no4)ccc3=O)ccc2F)CC1 [Example 137, 1-{[4-fluoro-3-(4-methylpiperazin-1-yl)phenyl]methyl}-5-{3-[4-(trifluoromethoxy)phenyl]-1,2,4-oxadiazol-5-yl}-1,2-dihydropyridin-2-one]	< 100 nM
O=c1ccc(-c2nc(-c3ccc(OC(F)(F)F)cc3)no2)cn1Cc1ccc(F)c(N2CCOCC2)c1 [Example 138, 1-{[4-fluoro-3-(morpholin-4-yl)phenyl]methyl}-5-{3-[4-(trifluoromethoxy)phenyl]-1,2,4-oxadiazol-5-yl}-1,2-dihydropyridin-2-one]	< 100 nM
O=c1ccc(-c2nc(-c3ccc(OC(F)(F)F)cc3)no2)cn1Cc1ccc(F)c(N2CCC(O)CC2)c1 [Example 139, 1-{[4-fluoro-3-(4-hydroxypiperidin-1-yl)phenyl]methyl}-5-{3-[4-(trifluoromethoxy)phenyl]-1,2,4-oxadiazol-5-yl}-1,2-dihydropyridin-2-one]	< 100 nM
CNC(=O)c1cc(Cn2nc(-c3nc(-c4ccc(OC(F)(F)F)cc4)no3)ccc2=O)ccc1F [Example 140, 2-fluoro-N-methyl-5-[(6-oxo-3-{3-[4-(trifluoromethoxy)phenyl]-1,2,4-oxadiazol-5-yl}-1,6-dihydropyridazin-1-yl)methyl]benzamide]	< 100 nM
O=c1ccc(-c2nc(-c3ccc(OC(F)(F)F)cc3)no2)cn1Cc1cccc(Br)c1 [Example 141, 1-[(3-bromophenyl)methyl]-5-{3-[4-(trifluoromethoxy)phenyl]-1,2,4-oxadiazol-5-yl}-1,2-dihydropyridin-2-one]	100 to 1000 nM
O=C(Cc1cccc(Cn2nc(-c3nc(-c4ccc(OC(F)(F)F)cc4)no3)ccc2=O)c1)N1CCOCC1 [Example 142, 2-({3-[2-(morpholin-4-yl)-2-oxoethyl]phenyl}methyl)-6-{3-[4-(trifluoromethoxy)phenyl]-1,2,4-oxadiazol-5-yl}-2,3-dihydropyridazin-3-one]	100 to 1000 nM
CN1CCN(C(=O)Cc2cccc(Cn3nc(-c4nc(-c5ccc(OC(F)(F)F)cc5)no4)ccc3=O)c2)CC1 [Example 143, 2-({3-[2-(4-methylpiperazin-1-yl)-2-oxoethyl]phenyl}methyl)-6-{3-[4-(trifluoromethoxy)phenyl]-1,2,4-oxadiazol-5-yl}-2,3-dihydropyridazin-3-one]	100 to 1000 nM
O=c1ccc(-c2nc(-c3ccc(OC(F)(F)F)cc3)no2)cn1Cc1cccc(N2CCOCC2)c1 [Example 144, 1-{[3-(morpholin-4-yl)phenyl]methyl}-5-{3-[4-(trifluoromethoxy)phenyl]-1,2,4-oxadiazol-5-yl}-1,2-dihydropyridin-2-one]	< 100 nM
CN(C)c1cccc(Cn2cc(-c3nc(-c4ccc(OC(F)(F)F)cc4)no3)ccc2=O)c1 [Example 145, 1-{[3-(dimethylamino)phenyl]methyl}-5-{3-[4-(trifluoromethoxy)phenyl]-1,2,4-oxadiazol-5-yl}-1,2-dihydropyridin-2-one]	< 100 nM
O=c1ccc(-c2nc(-c3ccc(OC(F)(F)F)cc3)no2)cn1Cc1cccc([N+](=O)[O-])c1 [Example 146, 1-[(3-nitrophenyl)methyl]-5-{3-[4-(trifluoromethoxy)phenyl]-1,2,4-oxadiazol-5-yl}-1,2-dihydropyridin-2-one]	100 to 1000 nM
O=c1ccc(-c2nc(-c3ccc(OC(F)(F)F)cc3)no2)cn1Cc1cccc(OCCO)c1 [Example 147, 1-{[3-(2-hydroxyethoxy)phenyl]methyl}-5-{3-[4-(trifluoromethoxy)phenyl]-1,2,4-oxadiazol-5-yl}-1,2-dihydropyridin-2-one]	< 100 nM
CCOc1cccc(Cn2cc(-c3nc(-c4ccc(OC(F)(F)F)cc4)no3)ccc2=O)c1 [Example 148, 1-[(3-ethoxyphenyl)methyl]-5-{3-[4-(trifluoromethoxy)phenyl]-1,2,4-oxadiazol-5-yl}-1,2-dihydropyridin-2-one]	< 100 nM
CN(C)C(=O)COc1cccc(Cn2cc(-c3nc(-c4ccc(OC(F)(F)F)cc4)no3)ccc2=O)c1 [Example 149, N,N-dimethyl-2-{3-[(2-oxo-5-{3-[4-(trifluoromethoxy)phenyl]-1,2,4-oxadiazol-5-yl}-1,2-dihydropyridin-1-yl)methyl]phenoxy}acetamide]	< 100 nM
CC(C)(C)OC(=O)NCCOc1cccc(Cn2cc(-c3nc(-c4ccc(OC(F)(F)F)cc4)no3)ccc2=O)c1 [Example 150, tert-butyl N-(2-{3-[(2-oxo-5-{3-[4-(trifluoromethoxy)phenyl]-1,2,4-oxadiazol-5-yl}-1,2-dihydropyridin-1-yl)methyl]phenoxy}ethyl)carbamate]	< 100 nM
Cc1cccc(Cn2cc(-c3nc(-c4ccc(OC(F)(F)F)cc4)no3)ccc2=O)c1 [Example 152, 1-[(3-methylphenyl)methyl]-5-{3-[4-(trifluoromethoxy)phenyl]-1,2,4-oxadiazo-5-yl}-1,2-dihydropyridin-2-one]	< 100 nM
